Columns and labels:
[1] = Reduction of propionyl-CoA in human hepatocytes derived from propionic acidemia patient pretreated for 30 mins followed by 13C-isoleucine addition and measured after 1 hr by MS/MS analysis; type: functional, cell-based; conditions: hepatocyte
[2] = Reduction of propionyl-CoA in human hepatocytes derived from propionic acidemia patient at 30 uM pretreated for 30 mins followed by 13C-isoleucine addition and measured after 1 hr by MS/MS analysis relative to control; type: functional, Hepatocyte; parameters: scale not given: the % may be the effect or the level left; conditions: time 90 min, 1.5 h
[3] = Reduction of methylmalonyl-CoA in human hepatocytes derived from methylmalonic acidemia pretreated for 30 mins followed by 13C-isoleucine addition and measured after 1 hr by MS/MS analysis; type: functional, cell-based; conditions: hepatocyte
[4] = Reduction of acetyl carnitine in human hepatocytes derived from methylmalonic acidemia patient pretreated for 30 mins followed by 13C-isoleucine addition and measured after 1 hr by MS/MS analysis; type: functional, cell-based; conditions: hepatocyte
[5] = Reduction of CoASH in human hepatocytes derived from methylmalonic acidemia at 30 uM pretreated for 30 mins followed by 13C-isoleucine addition and measured after 1 hr by MS/MS analysis; type: functional, Hepatocyte; parameters: scale not given: the % may be the effect or the level left; conditions: time 90 min, 1.5 h
[6] = Drug metabolism in human hepatocytes derived from propionic acidemia patient assessed as formation of 2,2-dimethylbutanoic acid-CoA pretreated for 30 mins followed by 13C-isoleucine addition and measured after 1 hr by MS/MS analysis relative to control; type: ADME, cell-based; conditions: Hepatocyte
[7] = Reduction of propionyl-CoA in human hepatocytes derived from methylmalonic acidemia at 30 uM pretreated for 30 mins followed by 13C-isoleucine addition and measured after 1 hr by MS/MS analysis relative to control; type: functional, Hepatocyte; parameters: scale not given: the % may be the effect or the level left; conditions: time 90 min, 1.5 h
[8] = Cmax in Sprague-Dawley rat at 50 mg/kg, po; type: ADME, organism-based; parameters: route oral, dose 50 mg/kg; conditions: in vivo
[9] = Cmax in Sprague-Dawley rat at 200 mg/kg, po; type: ADME, organism-based; parameters: route oral, dose 200 mg/kg; conditions: in vivo
[10] = Tmax in Sprague-Dawley rat at 10 mg/kg, po; type: ADME, organism-based; conditions: in vivo
[11] = Clearance in Sprague-Dawley rat at 10 mg/kg, iv; type: ADME, organism-based; conditions: in vivo
Hepatocyte = assay: Cytotoxicity against rat hepatocytes assessed as reduction in cell viability using radiolabeled compound; type: cell-based
[12] = Stability in human hepatocytes assessed as unchanged compound at 50 uM measured after 4 hrs; type: ADME, cell-based, Hepatocyte; conditions: read-out: Stabilty
[13] = Drug metabolism in Sprague-Dawley rat urine assessed as HST5040-glycine metabolite formation at 10 mg/kg administered as single dose by LC/MS analysis; type: ADME, organism-based; conditions: in vivo
Cytochrome P450 2B6 = molecular target: T1, Cytochrome P450 2B6 (Homo sapiens, UniProt P20813); assay: Time-dependent inhibition of CYP2B6 in human liver microsomes using bupropion as substrate preincubated for 30 mins; type: ADME
T1 sequence (P20813 whole entry): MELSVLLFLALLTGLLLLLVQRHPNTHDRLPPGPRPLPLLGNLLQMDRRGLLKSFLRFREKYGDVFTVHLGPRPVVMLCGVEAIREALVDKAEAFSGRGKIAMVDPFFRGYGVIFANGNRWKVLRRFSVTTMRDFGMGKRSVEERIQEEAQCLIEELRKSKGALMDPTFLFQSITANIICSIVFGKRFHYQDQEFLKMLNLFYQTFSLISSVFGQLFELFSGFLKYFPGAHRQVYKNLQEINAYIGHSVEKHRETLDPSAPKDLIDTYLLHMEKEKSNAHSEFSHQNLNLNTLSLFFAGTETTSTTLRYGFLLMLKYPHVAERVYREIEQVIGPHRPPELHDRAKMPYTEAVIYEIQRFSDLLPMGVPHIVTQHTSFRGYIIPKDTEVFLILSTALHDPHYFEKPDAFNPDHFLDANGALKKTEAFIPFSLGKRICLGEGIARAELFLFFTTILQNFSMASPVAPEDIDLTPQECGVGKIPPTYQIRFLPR

[14] = molecular target: T2, Multidrug and toxin extrusion protein 1 (Homo sapiens, UniProt Q96FL8); assay: Inhibition of human MATE1 assessed as reduction in MATE1-mediated metformin transport at 14900 uM relative to control
T2 sequence (Q96FL8 whole entry): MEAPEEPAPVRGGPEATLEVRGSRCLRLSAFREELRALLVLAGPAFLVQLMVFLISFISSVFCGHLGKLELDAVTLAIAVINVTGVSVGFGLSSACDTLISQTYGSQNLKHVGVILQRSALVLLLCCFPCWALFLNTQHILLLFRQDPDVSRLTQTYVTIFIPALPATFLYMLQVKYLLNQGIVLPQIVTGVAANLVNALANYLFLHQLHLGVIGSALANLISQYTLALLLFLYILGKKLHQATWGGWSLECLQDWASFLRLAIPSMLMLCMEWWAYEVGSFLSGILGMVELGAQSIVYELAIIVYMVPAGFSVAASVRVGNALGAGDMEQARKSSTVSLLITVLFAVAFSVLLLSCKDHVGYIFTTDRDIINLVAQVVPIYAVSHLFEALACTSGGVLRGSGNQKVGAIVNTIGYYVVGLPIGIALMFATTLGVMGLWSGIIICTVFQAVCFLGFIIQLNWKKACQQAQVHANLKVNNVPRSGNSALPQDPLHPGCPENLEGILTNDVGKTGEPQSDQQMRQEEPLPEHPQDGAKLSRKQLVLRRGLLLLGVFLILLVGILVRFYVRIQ

OATP1B3 = molecular target: T3, OATP1B3 (Homo sapiens, UniProt Q9NPD5); assay: Inhibition of human OATP1B3 assessed as reduction in OATP1B3-mediated E217betaG transport at 14900 uM relative to control; conditions: not told, probe E217betaG
T3 sequence (Q9NPD5 whole entry): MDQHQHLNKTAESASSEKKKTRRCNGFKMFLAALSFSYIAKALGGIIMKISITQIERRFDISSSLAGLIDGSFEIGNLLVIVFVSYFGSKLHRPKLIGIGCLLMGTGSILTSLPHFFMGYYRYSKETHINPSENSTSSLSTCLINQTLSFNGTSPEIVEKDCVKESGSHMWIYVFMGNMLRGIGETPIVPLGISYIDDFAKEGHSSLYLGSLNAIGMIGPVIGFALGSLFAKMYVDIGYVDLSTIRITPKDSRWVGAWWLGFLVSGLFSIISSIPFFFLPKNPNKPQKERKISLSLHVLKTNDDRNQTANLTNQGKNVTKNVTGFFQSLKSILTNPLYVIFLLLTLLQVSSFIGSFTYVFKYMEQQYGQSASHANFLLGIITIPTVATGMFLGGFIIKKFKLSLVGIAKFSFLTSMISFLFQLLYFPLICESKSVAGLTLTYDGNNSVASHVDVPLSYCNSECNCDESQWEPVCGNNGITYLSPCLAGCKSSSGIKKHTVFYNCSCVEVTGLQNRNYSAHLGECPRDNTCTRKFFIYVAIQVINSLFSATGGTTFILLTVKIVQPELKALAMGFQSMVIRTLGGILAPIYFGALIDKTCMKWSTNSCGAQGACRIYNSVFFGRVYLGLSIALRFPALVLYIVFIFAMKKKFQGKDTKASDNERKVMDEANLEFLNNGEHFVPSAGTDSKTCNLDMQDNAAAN

[15] = Induction of toxicity in minipig assessed as increase in number of cells with cytoplasmic vacuoles in renal tubules at >=50 mg/kg/day; type: organism-based, Sus scrofa domesticus; conditions: pig, in vivo
[16] = Induction of toxicity in minipig assessed as increase in serum albumin concentration at 300 mg/kg/day; type: organism-based, Sus scrofa domesticus; conditions: pig, in vivo

`CCC(C)(C)C(=O)O` [DIMEBUTIC ACID] gave an EC50 [1] of 0.94 µM, an Activity [2] of -78.8% and an EC50 [3] of 2 µM. It also gave an EC50 [4] of 4.3 µM, an Activity [5] of -22.3% and an EC50 [6] of 3 µM. For the same compound, the Activity [7] was -74.2%, the Cmax [8] was 21.9 µg/mL and the Cmax [9] was 113 µg/mL. The Tmax [10] was 15 min, the clearance [11] was 17.3 mL/min/kg and the Activity (Hepatocyte) was “Non-Toxic”. For the same compound, the remaining at 4 h, 50 µM [12] was 88%, the Drug metabolism [13] was “Metabolite_Detected” and the IC50 (Cytochrome P450 2B6) was > 10000 µM. The “inhibition (INH)” value [14] was “Not Active”, the inhibition at 14900 µM (OATP1B3) was 31.5% and the Activity [15] was “Toxic”. For the same compound, the Activity [16] was “Toxic”.
